Source: patent US8138361B2, “C-10 carbamates of taxanes” (The Trustees Of The University Of Pennsylvania, priority 2005, dated 2012)
pEC50: −log10 of the molar value. Like-named read-outs stand apart in the source and are kept apart here.

Legend:
[1] = system: tubulin; experiment: Tubulin polymerization assay (ability to promote polymerization of tubulin); type: biochemical
Excerpt: The kit is based upon an increase in quantum yield of florescence upon binding of a fluorophore to microtubules. […] Tubulin assembly may also be monitored by light scattering which is approximated by the apparent absorption at 350 nm. In the assay, BSA is employed to prevent aggregation and glycerol, which is a tubulin polymerization enhancer, is omitted from the kit to increase the signal to noise ratio. […]

[2] = system: tumor cell lines; experiment: Cytotoxicity assay (AlamarBlue, monolayer); type: cell-based
Description: Monolayer assays with tumor cell lines (MCF-7 breast carcinoma and HT-29 colorectal carcinoma from ATCC) were carried out in triplicate in 96-well plates with PMI1640 medium containing 5% fetal bovine serum, 100 U/ml penicillin and 100 μg/ml streptomycin. […] Exponentially growing cells (5,000 MCF-7 or HT-29; 1,500 HFF) were plated in 100 μl medium and incubated overnight (5% CO2, 37° C.). Compounds (20 pM to 20 μM final concentration, 6-8 doses) and vehicle (DMSO) controls were added and the incubation was continued for an additional 72 hours. […] EC50 values were generated from dose-response curves by a 4-parameter method using Softmax PRO software, Mean FC50s (±SD) represent the average of all tests carried out for all lots of a given compound.
1. Cells: • a. Breast tumor cell lines, MCF-7 and NCI/ADR-RES • b. Colon tumor cell lines: HCT-15 and HT-29 • c. Leukemia cell line K562 and K562/R • d. Non-small cell lung cancer cell line A549 • e. Human foreskin fibroblast cells (HFF) • f. Human umbilical vein endothelial cells (HUVEC)
2. Cell Culture: • a. All tumor cells were grown in RPMI1640 medium supplemented with 5% (v/v) fetal bovine serum and the antibiotics in a final concentration of 100 U/ml of penicillin and 100 μg/ml of streptomycin in an atmosphere of 5% CO2. • b. HFF and HUVEC were grown in the medium of FGM-2 and EGM-2 from Cambrex,
3. Cytotoxicity Assay: • a. Day 1: Cells growing exponentially were transferred to 96-well tissue culture plates. All cell types were plated at a density of 1,500-5,000 cells per well in 100 μl complete medium. • b. Day 2: 100 μl of experimental compounds in complete medium was added in triplicate wells, • c. Day 5; Cell growth inhibition was assayed using the AlamarBlue (BioSource, Camarillo, Calif.) signal reduction assay. Correlation between AlamarBlue and cell proliferation has been established in the literature. Compound concentration versus relative fluorescence units was plotted.
Detailed procedures for conducting the assays are provided herein and are known in the art.

[3] = target: T1, Pgp (Bos taurus, UniProt A0A3Q1MB23); experiment: Rhodamine 123 uptake assay in Bovine Brain Endothelial Cells (BBEC); type: cell-based; conditions: 25 micromolar; for Rhodamine 123 uptake: 45 min incubation, fluorescence normalized to protein content, average
T1 construct: Bovine Brain Endothelial Cells (BBEC) express Pgp; endogenous in cells; host or cells: Bovine Brain Endothelial Cells (BBEC)
Description: Bovine Brain Endothelial Cells (BBEC) express Pgp and are commonly used as model for Blood Brain Barrier (BBB).
All compounds and controls were run in triplicates.
The experiment was run in two 24-wells plates. […] After addition of the test compounds, cells were incubated for 45 min. After this time the drug solutions were removed by aspiration. The monolayers were then rinsed three times with ice-cold PBSG and finally solubilized with 1 mL of lysing solution for 30 min.

[4] = average %, relative to paclitaxel
[5] = average EC50, cell line not given, 72 hours incubation

T1 sequence (A0A3Q1MB23 1-1267): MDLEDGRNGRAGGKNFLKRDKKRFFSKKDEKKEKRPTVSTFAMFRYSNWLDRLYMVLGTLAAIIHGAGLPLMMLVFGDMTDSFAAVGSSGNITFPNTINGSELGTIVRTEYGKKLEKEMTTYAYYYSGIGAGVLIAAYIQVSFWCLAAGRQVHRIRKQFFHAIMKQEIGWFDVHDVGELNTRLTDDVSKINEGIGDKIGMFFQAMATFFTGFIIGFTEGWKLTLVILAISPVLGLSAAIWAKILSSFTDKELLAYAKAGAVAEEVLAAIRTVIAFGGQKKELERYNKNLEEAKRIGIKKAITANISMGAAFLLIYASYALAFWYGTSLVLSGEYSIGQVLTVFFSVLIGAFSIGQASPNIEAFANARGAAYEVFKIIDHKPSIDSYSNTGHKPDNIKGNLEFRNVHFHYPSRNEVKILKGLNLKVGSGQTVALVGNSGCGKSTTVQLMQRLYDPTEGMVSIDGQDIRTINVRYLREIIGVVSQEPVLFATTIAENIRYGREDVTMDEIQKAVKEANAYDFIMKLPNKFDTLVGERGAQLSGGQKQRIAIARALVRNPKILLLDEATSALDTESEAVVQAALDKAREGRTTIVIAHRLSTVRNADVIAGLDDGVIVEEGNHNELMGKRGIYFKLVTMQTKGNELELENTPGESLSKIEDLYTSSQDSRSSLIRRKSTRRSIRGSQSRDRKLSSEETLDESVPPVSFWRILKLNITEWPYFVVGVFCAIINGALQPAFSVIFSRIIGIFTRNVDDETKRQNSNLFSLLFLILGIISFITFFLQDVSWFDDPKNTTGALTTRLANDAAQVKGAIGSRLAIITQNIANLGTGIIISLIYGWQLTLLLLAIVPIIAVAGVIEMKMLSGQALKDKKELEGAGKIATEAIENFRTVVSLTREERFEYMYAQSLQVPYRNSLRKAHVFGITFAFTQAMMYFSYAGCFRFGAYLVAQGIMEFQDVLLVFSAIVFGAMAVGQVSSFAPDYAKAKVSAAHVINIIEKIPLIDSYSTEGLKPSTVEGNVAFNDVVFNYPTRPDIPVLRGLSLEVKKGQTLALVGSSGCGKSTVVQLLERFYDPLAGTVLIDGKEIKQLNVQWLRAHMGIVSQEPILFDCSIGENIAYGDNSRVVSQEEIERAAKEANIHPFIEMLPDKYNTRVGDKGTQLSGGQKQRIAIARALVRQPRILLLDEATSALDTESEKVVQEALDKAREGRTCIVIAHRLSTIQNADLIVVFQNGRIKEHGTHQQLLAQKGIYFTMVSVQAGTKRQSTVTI

Molecule | MPA: ability of the compound to promote polymerization of tubulin, expressed as percentage of the activity of paclitaxel [1, 4] | pEC50 [2, 5] | also measured
PXL-10Ca-PEG6000-10Ca-PXL [Compound 29] | a (a > 70%) | – | –
PXL-10Ca-PEG(14)-COOH [Compound 25] | a (a > 70%) | < 6.30 | –
CC(=O)OC12COC1CC(O)C1(C)C(=O)C(OC(=O)N(C)CC(=O)O)C3=C(C)C(OC(=O)C(O)C(NC(=O)c4ccccc4)c4ccccc4)CC(O)(C(OC(=O)c4ccccc4)C21)C3(C)C (centres unmarked) [Compound 13, PXL-10Ca-Sar-OH] | – | < 6.30 | Rhodamine 123 uptake [3]: b (b = >0.25)
PXL-10Ca-aniline [Compound 9] | b (b = 30-70%) | 6.30 to 8.00 | –
PXL-10Ca-Gly(tBu) [Compound 14] | b (b = 30-70%) | 6.30 to 8.00 | Rhodamine 123 uptake [3]: b (b = >0.25)
PXL-10Ca-Glucosamine [Compound 5] | a (a > 70%) | < 6.30 | –
CC(=O)OC12COC1CC(O)C1(C)C(=O)C(OC(=O)n3cnc4ccccc43)C3=C(C)C(OC(=O)C(O)C(NC(=O)c4ccccc4)c4ccccc4)CC(O)(C(OC(=O)c4ccccc4)C21)C3(C)C (centres unmarked) [Compound 8, 10-O-deacetyl-paclitaxel-10-O-carbonyl-N-benzimidazole] | b (b = 30-70%) | – | –
PXL-10Ca-Gly-N(Me)2 [Compound 15] | – | 6.30 to 8.00 | Rhodamine 123 uptake [3]: a (a < 0.25)
PXL-10Ca-N-methyl-N-butylamine [Compound 22] | a (a > 70%) | > 8.00 | –
CC(=O)OC12COC1CC(O)C1(C)C(=O)C(OC(=O)N3CCOCC3)C3=C(C)C(OC(=O)C(O)C(NC(=O)c4ccccc4)c4ccccc4)CC(O)(C(OC(=O)c4ccccc4)C21)C3(C)C (centres unmarked) [Compound 7, PXL-10Ca-Morpholine] | – | – | MPA: ability of the compound to promote polymerization of tubulin, expressed as percentage of the activity of paclitaxel [1]: a (key: a > 70%; b = 30-70%; c < 40%); pEC50 [2]: 6.30 to 8.00
PXL-10Ca-Glu | – | 6.30 to 8.00 | –
PXL-10Ca-Z-Lys-OH [Compound 19] | a (a > 70%) | < 6.30 | –
PXL-10Ca-p-NO2-aniline [Compound 18] | b (b = 30-70%) | 6.30 to 8.00 | –
COC(=O)C(C)NC(=O)OC1C(=O)C2(C)C(O)CC3OCC3(OC(C)=O)C2C(OC(=O)c2ccccc2)C2(O)CC(OC(=O)C(O)C(NC(=O)c3ccccc3)c3ccccc3)C(C)=C1C2(C)C (centres unmarked) [Compound 39, PXL-10Ca-alanine-Me-ester] | – | – | pEC50 [2]: > 8.00
PXL-10Ca-H-Lys-OH [Compound 20] | a (a > 70%) | < 6.30 | –
CC(=O)O[C@H]1C(=O)[C@@]2(C)[C@H]([C@H](OC(=O)c3ccccc3)[C@]3(O)C[C@H](OC(=O)[C@H](O)[C@@H](NC(=O)c4ccccc4)c4ccccc4)C(C)=C1C3(C)C)[C@]1(OC(C)=O)CO[C@@H]1C[C@@H]2O [PXL, Paclitaxel, reference compound] | – | – | effect on rhodamine uptake (in words) [3]: higher rhodamine uptake; Rhodamine 123 uptake [3]: b (b = >0.25)
PXL-10Ca-Ph-acetic acid [Compound 10] | a (a > 70%) | < 6.30 | –
PXL-10CaSpermine [Compound 16] | a (a > 70%) | – | pEC50 [2]: < 6.30
CC(=O)OC12COC1CC(O)C1(C)C(=O)C(OC(=O)NCC(=O)O)C3=C(C)C(OC(=O)C(O)C(NC(=O)c4ccccc4)c4ccccc4)CC(O)(C(OC(=O)c4ccccc4)C21)C3(C)C (centres unmarked) [Compound 12, PXL-10Ca-Gly-OH] | – | – | Rhodamine 123 uptake [3]: a (a < 0.25); pEC50 [2]: < 6.30
PXL-10Ca-piperidine [Compound 6] | b (b = 30-70%) | > 8.00 | –
PXL-10Ca-PEG(29)-VBL [Compound 28] | – | 6.30 to 8.00 | MPA: ability of the compound to promote polymerization of tubulin, expressed as percentage of the activity of paclitaxel ([1]; relative to paclitaxel, given as number): 40%
PXL-10Ca-di-Et-amine [Compound 23] | c (c < 40%) | 6.30 to 8.00 | –
